# Data taken from publication PMC8032764 (Scientific Reports, 2021).
# Assays:
# Serotonin 5-HT1B = test system: T1, Serotonin 5-HT1B; test: Cerep binding; details: 10 μM; [125I]CYP; rat cerebral cortex
# T1 construct: purchased Eurofins Cerep
# [1] = Plasma concentration in PET study; assay type: in vivo; details: human
# Procedure: The study was single-blind, i.e., subjects were blinded to dose. Blood sampling was performed at four different timepoints starting 30 min before the post dose PET scan.
# Opioid κ = test system: T2, Opioid κ; test: Cerep binding; design: species or system human; details: 10 μM; [3H]U 69593; hum. recomb. (CHO)
# T2 construct: host or cells: CHO
# Dopamine D1 = test system: T3, Dopamine D1; test: Cerep binding; design: species or system human; details: 10 μM; [3H]SCH 23390; hum. recomb. (CHO)
# T3 construct: host or cells: CHO
# [2] = target: T4, human GABAA α1β3γ2 receptors (Homo sapiens, UniProt P14867+P18507); test: [3H]-flumazenil competition binding, HEK293 membranes; details: 1 nM [3H]-flumazenil
# T4 construct: expressed in transfected cells; host or cells: HEK293-EBNA, transient
# Benzodiazepine (central) = test: Cerep binding; details: 10 μM; [3H]flunitrazepam; rat cerebral cortex
# human GABAA α3β3γ2 = test system: T5, human GABAA α3β3γ2; test: Two-electrode voltage clamp in Xenopus oocytes, current induced by EC10 of GABA; assay type: cell-based; details: 3000 nM
# T5 construct: expressed in transfected cells; host or cells: Xenopus laevis oocytes, cRNA injection
# Procedure: (§1) Freshly prepared oocytes of maturation stage VI were bought from Ecocyte Bioscience (Castrop-Rauxel, Germany) and, after overnight delivery, plated into 96-well plates (Greiner no. 651101) for microinjection on a ROBOOCYTE R16 system (Multichannel Systems MCS GmbH, Reutlingen, Germany). Each oocyte was injected with roughly 50 nL of RNA solution. The solution for expressing receptors composed of the human α1, β2 and γ2 subunits contained 3 pg/nL of α1 and β2 RNA and 15 pg/nL of γ2 RNA. The solution for expressing human α2β3γ2 receptors contained 2.5 pg/nL of α2 and β3 RNA, 5 pg/nL of γ2 RNA and 10 pg/nL of GABARAP RNA. The solution for expressing human α3β3γ2 receptors contained 1.3 pg/nL of α3 and β3 RNA and 6.5 pg/nL of γ2 RNA. The solution for expressing human α5β3γ2 receptors contained 1.3 pg/nL of α5 and β3 RNA and 13 pg/nL of γ2 RNA. GABARAP was added to the α2β3γ2 subunit mixture since the expression of γ2 would be low otherwise, as indicated by a weak effect of β-CCM[60]. After the microinjection the oocytes were kept at 20 °C temperature until the electrophysiological experiment. Experiments were done 3 to 5 days later on the ROBOOCYTE instrument which employs the two-microelectrode voltage-clamp technique for membrane voltage control and current measurement. […] During current recording and compound testing the cell membrane was constantly clamped to − 80 mV. Current signals were recorded and stored on a PC-type computer using the ROBOOCYTE software.
# (§2) During the microinjection and up to the electrophysiological experiment the oocytes were kept in a solution containing 88 mM NaCl, 1 mM KCl, 2.5 mM NaHCO3, 10 mM HEPES (AppliChem GmbH, Darmstadt, Germany), 0.82 MgSO4, 0.33 mM Ca(NO3)2, 0.33 mM CaCl2, 100 U/mL penicillin (GIBCO, ThermoFisher Scientific) and 100 µg/mL streptomycine (GIBCO, ThermoFisher Scientific). The pH was adjusted to 7.5. During the experiment the voltage-clamped oocyte was constantly superfused by a solution containing 90 mM NaCl, 1 mM KCl, 5 mM HEPES (AppliChem), 1 mM MgCl2 and 1 mM CaCl2 (pH 7.4). GABA and test compounds were added to this solution. GABA concentrations were chosen according to previously determined concentration–response relations for the different human GABAA receptor subunit combinations. Concentrations evoking approximately 10% of a maximal response were selected, i.e., 8 µM for α1β2γ2, 6 µM for α2β3γ2, 10 µM for α3β3γ2 and 5 µM for α5β3γ2. Solutions containing GABA or test compounds were freshly prepared at least every second day. […] Compounds were further diluted in DMSO and finally in extracellular saline to reach a DMSO concentration of 0.1%. The same amount of DMSO was added to the control solutions without test compounds. […]
# human GABAA α2β3γ2 = test system: T6, human GABAA α2β3γ2; test: as above; assay type: cell-based; details: 3000 nM
# T6 construct: expressed in transfected cells; host or cells: Xenopus laevis oocytes, cRNA injection
# Procedure: as §1, §2
# human GABAA α1β2γ2 = test system: T7, human GABAA α1β2γ2; test: as above; assay type: cell-based; details: 3000 nM
# T7 construct: expressed in transfected cells; host or cells: Xenopus laevis oocytes, cRNA injection
# Procedure: as §1, §2
# male Sprague-Dawley rats = test: Prepulse inhibition; assay type: in vivo, rat; details: 1, 3 and 10 mg/kg p.o., 30 min prior to testing
# Procedure: intensities (72, 76, 80, 84 dB) at total plasma concentrations of 56 ± 20, 169 ± 20, and […]
# Compound administered at 1, 3 and 10 mg/kg p.o. to male Sprague-Dawley rats 30 min prior to testing. Bars indicate mean percent prepulse inhibition (% PPI) ± SEM; 10 animals per dose group. Background noise: 68 dB. Startle pulse: 12 0 dB. For full methods refer to:
# Nordquist et al. (2008). Effects of aripiprazole/OPC-14597 on motor activity, pharmacological models of psychosis, and brain activity in rats. Neuropharmacology , 54,405-416.
# Animals were euthanized at the end of testing and plasma samples were collected approximately 60 min post administration; n = 4 rats per group.
# (1 picture or pasted object on this page, not shown here)
smiles,measurement,setting,value
Cc1onc(-c2ccc(F)cc2)c1COc1ccc(C(=O)N2CCS(=O)(=O)CC2)cn1 [basmisanil],% Inhibition,Serotonin 5-HT1B,0%
same,concentration at 3.75 h,"[1]; subject 11010, 40 mg, 3.75 h prior to scan",592 ng/mL
same,concentration at 3.12 h,"[1]; subject 11020, 160 mg, 3.12 h prior to scan",2280 ng/mL
same,concentration at 3 h,"[1]; subject 11021, 160 mg, 3.00 h prior to scan",2550 ng/mL
same,concentration at 2.63 h,"[1]; subject 13010, 40 mg, 2.63 h prior to scan",422 ng/mL
same,concentration at 4.75 h,"[1]; subject 13030, 1000 mg, 4.75 h prior to scan",2200 ng/mL
same,concentration at 4.77 h,"[1]; subject 13031, 1000 mg, 4.77 h prior to scan",3350 ng/mL
same,concentration at 1.48 h,"[1]; subject 13040, 20 mg, 1.48 h prior to scan",111 ng/mL
same,concentration at 2.2 h,"[1]; subject 13041, 20 mg, 2.20 h prior to scan",398 ng/mL
same,concentration at 2.43 h,"[1]; subject 13050, 80 mg, 2.43 h prior to scan",1000 ng/mL
same,% Inhibition,Opioid κ,13%
same,% Inhibition,Dopamine D1,0%
same,Ki,[2],1030 ± 54 nM
same,% Inhibition,Benzodiazepine (central),76%
same,inhibition,human GABAA α3β3γ2,< 10%
same,inhibition,human GABAA α2β3γ2,< 10%
same,inhibition,human GABAA α1β2γ2,< 10%
same,"prepulse inhibition induced by prepulse intensities 72, 76, 80, 84 dB",male Sprague-Dawley rats,does not impair prepulse inhibition
